Where “and” joins values, the source holds several entries; their conditions need not be identical. Identical values can stand only once.
System: mice
Experiment: Biological Example 5: acute toxicity experiment of single oral administration in mice
Type: in vivo
Settings: single oral 1000 mg/Kg, Mean ± SD
Procedure: The mice were fasted one day before the experiment. On the day of the experiment, 6 mice (ICR mice, body weight of 19-21 g, three females and three males) were selected in each experiment group. First of all, one female and one male were selected to orally give 1000 mg/Kg, and observed for 5-10 minutes. If there were no obvious side effects, the remaining 4 animals were orally given the same dose, and observed for 10-15 minutes. If no animal died, the animals were placed in a box to balancedly feed for 7 days. The state was observed and the body weight was recorded daily.
Observation Indexes within 0-15 Minutes after Administration
Activity: restlessness, hyperactivity
Nervous system response: tremor, spasm, convulsion, ataxia, posture abnormality, etc.
Autonomic nerve: exophthalmos, salivation, tears, urination (hematuria), diarrhea, piloerection, breathing, etc.
State of Animal: lethargy, hyperactivity, excitement, hair loss, diarrhea, abnormal behavior, death, etc.

Compound	Daily Body Weight (Female mice, Day 1) [g]	Daily Body Weight (Female mice, Day 2) [g]	Daily Body Weight (Female mice, Day 3) [g]	Daily Body Weight (Female mice, Day 4) [g]	Daily Body Weight (Female mice, Day 5) [g]	Daily Body Weight (Female mice, Day 6) [g]	Daily Body Weight (Female mice, Day 7) [g]	Daily Body Weight (Male mice, Day 1) [g]	Daily Body Weight (Male mice, Day 2) [g]	Daily Body Weight (Male mice, Day 3) [g]	Daily Body Weight (Male mice, Day 4) [g]	Daily Body Weight (Male mice, Day 5) [g]	Daily Body Weight (Male mice, Day 6) [g]	Daily Body Weight (Male mice, Day 7) [g]	also measured
COCCN1C(=O)CCC(N2C(=O)c3cccc(NC(C)=O)c3C2=O)C1=O (stereo not drawn) [Example 1, 4-acetylamino-2-(1-(2-methoxyethyl)-2,6-dioxopiperidin-3-yl)isoindolin-1,3-dione]	18.5 ± 0.1	22.8 ± 0.3	23.2 ± 0.7	24.0 ± 0.2	25.3 ± 1.6	25.7 ± 1.6	27.1 ± 1.1	20.1 ± 1.4	23.8 ± 1.4	24.9 ± 1.0	26.3 ± 1.2	27.7 ± 1.3	29.2 ± 1.4	29.4 ± 1.4	–
COCCN1C(=O)CCC(N2C(=O)c3cccc(N(C)C)c3C2=O)C1=O (stereo not drawn) [Example 3, 4-dimethylamino-2-(1-(2-methoxyethyl)-2,6-dioxopiperidin-3-yl)isoindolin-1,3-dione]	–	–	–	–	–	–	–	–	–	–	–	–	–	–	Daily Body Weight (Female mice, Day 1, 1000 mg/kg): 18.3 ± 0.4 g and 18.8 ± 0.4 g; Daily Body Weight (Female mice, Day 2, 1000 mg/kg): 21.7 ± 0.2 g and 22.1 ± 1.2 g; Daily Body Weight (Female mice, Day 3, 1000 mg/kg): 22.3 ± 0.2 g and 22.7 ± 0.8 g; Daily Body Weight (Female mice, Day 4, 1000 mg/kg): 22.6 ± 0.8 g and 23.0 ± 1.4 g; Daily Body Weight (Female mice, Day 5, 1000 mg/kg): 23.0 ± 1.4 g and 23.7 ± 1.9 g; Daily Body Weight (Female mice, Day 6, 1000 mg/kg): 22.6 ± 1.3 g and 24.1 ± 1.2 g; Daily Body Weight (Female mice, Day 7, 1000 mg/kg): 22.7 ± 0.4 g and 24.4 ± 1.8 g; Daily Body Weight (Male mice, Day 1, 1000 mg/kg): 18.8 ± 0.7 g and 18.0 ± 0.2 g; Daily Body Weight (Male mice, Day 2, 1000 mg/kg): 23.3 ± 0.1 g and 22.9 ± 0.3 g; Daily Body Weight (Male mice, Day 3, 1000 mg/kg): 24.3 ± 0.1 g and 24.3 ± 0.9 g; Daily Body Weight (Male mice, Day 4, 1000 mg/kg): 25.6 ± 0.7 g and 25.2 ± 1.1 g; Daily Body Weight (Male mice, Day 5, 1000 mg/kg): 26.9 ± 0.8 g and 27.0 ± 1.3 g; Daily Body Weight (Male mice, Day 6, 1000 mg/kg): 27.9 ± 0.9 g and 28.2 ± 1.9 g; Daily Body Weight (Male mice, Day 7, 1000 mg/kg): 28.6 ± 0.4 g and 28.5 ± 2.7 g
COCCN1C(=O)CCC(N2C(=O)c3ccc(F)c(N)c3C2=O)C1=O (stereo not drawn) [Example 9, 4-amino-5-fluoro-2-(1-(2-methoxyethyl)-2,6-dioxopiperidin-3-yl)isoindolin-1,3-dione]	17.5 ± 0.6	22.1 ± 0.9	22.1 ± 0.7	22.8 ± 0.8	22.8 ± 1.0	22.7 ± 1.6	23.6 ± 1.7	18.3 ± 0.7	23.6 ± 0.7	24.1 ± 1.0	25.9 ± 1.1	27.2 ± 0.5	26.9 ± 1.4	27.9 ± 1.5	–
CSCCN1C(=O)CCC(N2C(=O)c3cccc(N)c3C2=O)C1=O (stereo not drawn) [Example 11, 4-amino-2-(1-(2-methylthioethyl)-2,6-dioxopiperidin-3-yl)isoindolin-1,3-dione]	18.1 ± 0.2	21.7 ± 0.2	22.4 ± 0.1	22.4 ± 0.1	23.5 ± 0.4	23.2 ± 0.8	23.2 ± 0.9	19.5 ± 0.6	23.7 ± 0.8	25.4 ± 0.4	25.4 ± 0.4	27.0 ± 0.5	29.0 ± 0.7	29.8 ± 1.0	–
CS(=O)(=O)CCN1C(=O)CCC(N2C(=O)c3cccc(N)c3C2=O)C1=O (stereo not drawn) [Example 13, 4-amino-2-(1-(2-methylsulfonylethyl)-2,6-dioxopiperidin-3-yl)isoindolin-1,3-dione]	18.8 ± 1.1	21.3 ± 0.3	21.8 ± 0.4	21.8 ± 0.4	23.0 ± 0.5	23.2 ± 0.9	23.6 ± 0.9	19.6 ± 0.7	23.1 ± 0.6	24.4 ± 0.9	24.4 ± 0.9	26.5 ± 0.5	28.3 ± 1.3	28.4 ± 0.8	–
COCCCN1C(=O)CCC(N2C(=O)c3cccc(F)c3C2=O)C1=O (stereo not drawn) [Example 17, 4-fluoro-2-(1-(3-methoxypropyl)-2,6-dioxopiperidin-3-yl)isoindolin-1,3-dione]	18.6 ± 1.0	21.9 ± 0.4	22.7 ± 0.4	22.7 ± 0.4	23.0 ± 0.4	23.1 ± 1.0	22.7 ± 1.2	19.0 ± 0.7	24.0 ± 0.7	24.6 ± 0.8	24.6 ± 0.8	26.1 ± 0.7	28.1 ± 0.6	29.3 ± 1.0	–
COCCCN1C(=O)CCC(N2C(=O)c3ccc(N)cc3C2=O)C1=O (stereo not drawn) [Example 18, 5-amino-2-(1-(3-methoxypropyl)-2,6-dioxopiperidin-3-yl)isoindolin-1,3-dione]	18.4 ± 0.7	22.5 ± 0.8	23.8 ± 1.1	24.8 ± 1.5	24.8 ± 0.6	25.4 ± 0.7	25.2 ± 1.1	18.2 ± 0.4	23.0 ± 0.7	24.1 ± 0.4	25.6 ± 0.8	28.1 ± 1.1	29.0 ± 1.4	29.0 ± 1.0	–
CCOCCN1C(=O)CCC(N2C(=O)c3cccc(N)c3C2=O)C1=O (stereo not drawn) [Example 19, 4-amino-2-(1-(2-ethoxyethyl)-2,6-dioxopiperidin-3-yl)isoindolin-1,3-dione]	18.0 ± 0.6	20.7 ± 1.1	21.3 ± 0.6	22.8 ± 0.3	23.2 ± 0.7	23.3 ± 1.2	23.0 ± 1.7	18.9 ± 1.2	20.7 ± 1.1	21.3 ± 0.6	25.0 ± 2.0	24.8 ± 1.9	26.5 ± 1.9	27.7 ± 2.2	–
CCOCCN1C(=O)CCC(N2C(=O)c3cccc(F)c3C2=O)C1=O (stereo not drawn) [Example 20, 4-fluoro-2-(1-(2-ethoxyethyl)-2,6-dioxopiperidin-3-yl)isoindolin-1,3-dione]	18.7 ± 0.4	21.6 ± 1.0	22.1 ± 1.0	22.1 ± 1.0	23.0 ± 1.4	23.3 ± 0.2	23.7 ± 0.8	18.8 ± 1.0	24.0 ± 1.1	25.3 ± 1.2	25.3 ± 1.2	26.7 ± 1.2	29.0 ± 1.1	29.3 ± 0.7	–

— US20220372013A2, “PIPERIDINE-2,6-DIONE DERIVATIVES AND CROHN'S DISEASE TREATING” (Tianjin Hemay Pharmaceutical Sci-Tech Co., Ltd, priority 2016, published 2022)
